# Results taken from the NIST ThermoML archive (doi:10.1021/je060001s).
# Numbers after ± are expanded uncertainties.
# Legend:
# [1] = 298.15 K; 101.33 kPa; Liquid
# [2] = refractive index (Na D-line) (dimensionless); details: 298.15 K; 101.33 kPa; Liquid; Standard Abbe refractometry
mass density [1],refractive index [2],SMILES
879.47 ± 0.39 kg/m3,1.4048 ± 0.0004,CCCCCC(=O)OC [methyl hexanoate]
884.8 ± 0.38 kg/m3,1.3971 ± 0.0004,CCCCC(=O)OC [methyl pentanoate]
776.62 ± 0.52 kg/m3,1.3418 ± 0.0004,CC#N [acetonitrile]
892.16 ± 0.37 kg/m3,1.3847 ± 0.0004,CCCC(=O)OC [methyl butanoate]
